Data on two compounds can be found in US20120058198A1, “METHODS FOR TREATING AND PREVENTING PNEUMONIA AND VENTILATOR-ASSOCIATED TRACHEOBRONCHITIS” (PULMATRIX, INC., priority 2009, published 2012).

Assay [1] concerns Serotype 3 Streptococcus pneumoniae. The assay is described as follows: Mouse S. pneumoniae infection model, nebulized calcium:sodium formulations 2 hours before infection. Format: in vivo. To be noted: ampicillin synergy study; nebulized 2 h before infection; ~0.72 mg Ca/kg, ampicillin ~3 mg/kg. On the procedure: Unless otherwise stated, exposure times were 3 minutes in duration. […] CFU were enumerated the following day.

The test system of assay [2] is bacteria. The assay can be described thus: Pass through assay, calcium chloride dose dependence (bacterium not named). The class given is cell-based. As to conditions: amount delivered to mimetic, between the […] and […] solutions; from other analyses. Here is the method: In these studies, the number of exposures via nebulization was different, making direct comparisons difficult. […] In this study, a single dose of each formulation was delivered to the apical surface of sodium alginate mimetic and bacteria were added immediately after exposure. […] In contrast, the 0.12M and 0.38M treatments had no effect.
All of the formulations tested above were formulated in isotonic saline. Thus, the inhibitory effects seen could be caused by the dual action of sodium and calcium ions in concert or alternatively, the effect could be driven entirely by calcium. To differentiate between these hypotheses, we tested additional calcium formulations based in water rather than saline.

The structures appear in SMILES notation.

On to `CC1(C)S[C@@H]2[C@H](NC(=O)[C@H](N)c3ccccc3)C(=O)N2[C@H]1C(=O)O` [ampicillin], for which the “reduction in lung bacterial titers relative to saline control” value in assay [1] was found to be 33 fold.
Regarding `[Ca+2].[Cl-].[Cl-]` [calcium chloride], the “critical concentration of calcium needed for the inhibition of bacteria” value in assay [2] is listed as 3-4 μg of calcium per cm^2.
